Here are results for 2 compounds from patent publication US9399028B2, “Treatment of drug resistant cancer” (ROCKEFELLER UNIVERSITY (THE), priority 2012, dated 2016).

Assay [1] deals with B-RafV600E/+; Pten-/-; CDKN2A-/- primary mouse melanoma cells. Kind of assay: B-RafV600E/+; Pten-/-; CDKN2A-/- melanoma cells in syngeneic C57BL/6 mice. The format is in vivo. The method, then: FIG. 24A-F. Suppression of Genetically-Driven Melanoma Progression by LXR Activation Therapy. (FIG. 24A) Overall survival of Tyr::CreER; BrafV600E/+; Ptenlox/+C57BL/6 mice following general melanoma induction by intraperitoneal administration of 4-HT (25 mg/kg) on three consecutive days. After the first 4-HT injection, mice were randomly assigned to a control diet or a diet supplemented with GW3965 (100 mg/kg). n=10-11. (FIG. 24B) Melanoma tumor burden, expressed as the percentage of dorsal skin area, measured on day 35 in Tyr::CreER; BrafV600E/+; Ptenlox/lox mice administered a control chow or a chow supplemented with GW3965 (100 mg/kg) upon melanoma induction as described in (FIG. 24A). n=4-5. (FIG. 24C) Number of macroscopic metastatic nodules to the salivary gland lymph nodes detected post-mortem in Tyr::CreER; BrafV600E/+; Ptenlox/lox mice that were fed a control chow or a chow containing GW3965 (100 mg/kg) following global induction of melanoma progression as described in (FIG. 24A). n=7-8. (FIG. 24D) Tumor growth following subcutaneous injection of 1×105 BrafV600E/+; Pten−/−; CDKN2A−/− primary melanoma cells into syngeneic C57BL/6-WT mice. Upon tumor growth to 5-10 mm3 in volume, mice were fed with a control chow or a chow supplemented with GW3965 (100 mg/kg). n=16-18. […]

Assay [2] relates to MeWo, SK-Mel-2, SK-Mel-334.2, SK-Mel-239 human melanoma cells. Kind of assay: Subcutaneous human melanoma tumor growth in immunocompromised mice. The format is in vivo.
Excerpt: (§1) All data are represented as mean±SEM.
as §1

The test system of the next assay is MeWo cells. Kind of assay: Orthotopic metastasis assay after tumor excision. In kind it is in vivo, human. Conditions: chow 100 mg/kg for 1 month. As for the experimental part: To determine the effect of GW3965 treatment on lung colonization by melanoma cells dissociated from an orthotopic site, 1×10^6 MeWo cells expressing a luciferase reporter were subcutaneously injected into both lower flanks of NOD Scid mice. Upon the formation of tumors measuring 300 mm^3 in volume, the tumors were excised and the mice were randomly assigned to a control diet or a GW3965-supplemented diet (100 mg/kg) treatment. One month after tumor excision, the lungs were extracted and lung colonization was measured by ex vivo bioluminescence imaging. To histologically confirm the extent of melanoma lung colonization, lungs were then fixed in 4% PFA overnight, paraffin-embedded, section into […] increments and stained for human vimentin (VP-V684, Vector Laboratories).

The subject of assay [3] is endothelial cells recruited into matrigel plugs. Kind of assay: In vivo matrigel plug assay. Set-up: species or system mouse. Particulars: VEGF 400 ng/mL + ApoE3 10 μg/mL. As for the experimental part:
10 μg/mL recombinant human ApoE3 (4696, BioVision), 10 μg/mL BSA (A2153, Sigma Aldrich), or 400 ng/ml VEGF were mixed with matrigel (356231, BD Biosciences) as indicated. 400 μL of matrigel containing the indicated recombinant proteins were injected subcutaneously just above the ventral flank of immunocompromised NOD-SCID mice. Plugs were extracted on day 3 post-injection and fixed in 4% paraformaldehyde for 48 hours. Plugs were then paraffin-embedded and sectioned at 5-μm-thick increments. Plug cross-sectional sections were immunohistochemically stained using a primary antibody against the mouse endothelial antigen MECA-32 (Developmental Studies Hybridoma Bank, The University of Iowa, IA), detected by peroxidase-conjugated secondary antibody, and subsequently visualized by DAB oxidization. To quantify the extent of endothelial cell invasion into each matrigel plug, the number of endothelial cells was counted in 4-5 random fields for each plug, and the average number of endothelial cells per given plug area was calculated.

Counter-ions that a name gives are not always drawn.

Regarding `O=C(O)Cc1cccc(OCCCN(Cc2cccc(C(F)(F)F)c2Cl)CC(c2ccccc2)c2ccccc2)c1` [GW3965 2, 3-[3-[N-(2-Chloro-3-trifluoromethylbenzyl)-(2,2-diphenylethyl)amino]propyloxy]phenylacetic acid hydrochloride], the lung metastasis entry in assay [1] (intravenous, diet 100 mg/kg) is reported as “robustly inhibited”. Besides, the tumor growth entry in assay [1] (subcutaneous, chow 100 mg/kg) is on record as “robustly inhibited”. For the same compound, the “suppression of growth of SK-Mel-239 vemurafenib-resistant line” value in assay [2] (diet 100 mg/kg, NOD Scid gamma mice) is given as 72%. Further, in assay [2] (immunocompromised mice, chow 100 mg/kg after tumor establishment), the “overall survival time, MeWo and SK-Mel-334.2 xenografts” value is reported as “substantially prolonged”. For the same compound, in assay [2] (oral in diet), the “tumor growth inhibition, MeWo” value was determined as 70%; the “tumor growth inhibition, SK-Mel-2” value is recorded as 49%; the “tumor growth inhibition, SK-Mel-334.2” value is reported as 73%. Also, the “growth of in vivo-derived DTIC-resistant MeWo tumors” value in assay [2] (oral, diet 100 mg/kg, NOD Scid gamma mice) is “strongly inhibited”. The “inhibition of lung colonization by disseminated melanoma cells post-tumor excision” value in the assay with MeWo cells came out at 17 fold.

As for “recombinant human ApoE3: recombinant human ApoE3 (4696, BioVision)”, the “suppression of VEGF-induced endothelial recruitment in vivo into subcutaneous matrigel plugs” value in assay [3] was “greater than 40 fold”.
